In patent publication US20240156825A1, “USE OF SELECTIVE VEGFR2 AND FGFR1 INHIBITORS” (Fountain Therapeutics Inc., priority 2022, published 2024):
Read-outs that look alike come from different tables or passages of the source.

Experiments:
[1] = test system: any gene target; conditions: cited from earlier work
[2] = test system: VEGFR2 and FGFR1; experiment: Selection of compounds that selectively inhibit both VEGFR2 and FGFR1 (average relative IC50); assay type: biochemical;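 note: relative IC50 is the IC50 for VEGFR2 or FGFR1 divided by the next-lowest IC50 reported against any target gene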
[3] = target: FGFR1 (Homo sapiens, UniProt P11362)
Sequence of FGFR1 (P11362 22-822, species assumed): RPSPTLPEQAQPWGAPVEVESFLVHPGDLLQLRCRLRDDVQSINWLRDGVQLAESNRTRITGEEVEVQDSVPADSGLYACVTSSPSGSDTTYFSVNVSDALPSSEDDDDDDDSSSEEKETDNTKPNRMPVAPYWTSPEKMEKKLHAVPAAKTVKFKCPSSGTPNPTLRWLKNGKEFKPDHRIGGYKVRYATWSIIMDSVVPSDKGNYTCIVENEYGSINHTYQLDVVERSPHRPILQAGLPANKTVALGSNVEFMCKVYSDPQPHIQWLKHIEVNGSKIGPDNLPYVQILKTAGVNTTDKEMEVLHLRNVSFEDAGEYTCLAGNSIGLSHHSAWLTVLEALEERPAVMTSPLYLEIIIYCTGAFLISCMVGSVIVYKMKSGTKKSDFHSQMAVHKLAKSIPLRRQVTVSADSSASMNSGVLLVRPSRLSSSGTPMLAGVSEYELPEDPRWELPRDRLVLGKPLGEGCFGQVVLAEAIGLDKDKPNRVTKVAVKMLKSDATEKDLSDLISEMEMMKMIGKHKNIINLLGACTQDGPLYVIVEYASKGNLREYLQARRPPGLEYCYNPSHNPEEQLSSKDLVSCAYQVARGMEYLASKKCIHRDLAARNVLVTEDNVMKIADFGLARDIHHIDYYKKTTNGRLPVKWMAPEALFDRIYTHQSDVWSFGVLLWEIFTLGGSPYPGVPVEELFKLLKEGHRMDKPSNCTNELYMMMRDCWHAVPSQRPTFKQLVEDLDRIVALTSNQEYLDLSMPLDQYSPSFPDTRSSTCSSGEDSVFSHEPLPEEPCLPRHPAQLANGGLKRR

[4] = target: VEGFR2 (Homo sapiens, UniProt P35968)
Sequence of VEGFR2 (P35968 20-1356, species assumed): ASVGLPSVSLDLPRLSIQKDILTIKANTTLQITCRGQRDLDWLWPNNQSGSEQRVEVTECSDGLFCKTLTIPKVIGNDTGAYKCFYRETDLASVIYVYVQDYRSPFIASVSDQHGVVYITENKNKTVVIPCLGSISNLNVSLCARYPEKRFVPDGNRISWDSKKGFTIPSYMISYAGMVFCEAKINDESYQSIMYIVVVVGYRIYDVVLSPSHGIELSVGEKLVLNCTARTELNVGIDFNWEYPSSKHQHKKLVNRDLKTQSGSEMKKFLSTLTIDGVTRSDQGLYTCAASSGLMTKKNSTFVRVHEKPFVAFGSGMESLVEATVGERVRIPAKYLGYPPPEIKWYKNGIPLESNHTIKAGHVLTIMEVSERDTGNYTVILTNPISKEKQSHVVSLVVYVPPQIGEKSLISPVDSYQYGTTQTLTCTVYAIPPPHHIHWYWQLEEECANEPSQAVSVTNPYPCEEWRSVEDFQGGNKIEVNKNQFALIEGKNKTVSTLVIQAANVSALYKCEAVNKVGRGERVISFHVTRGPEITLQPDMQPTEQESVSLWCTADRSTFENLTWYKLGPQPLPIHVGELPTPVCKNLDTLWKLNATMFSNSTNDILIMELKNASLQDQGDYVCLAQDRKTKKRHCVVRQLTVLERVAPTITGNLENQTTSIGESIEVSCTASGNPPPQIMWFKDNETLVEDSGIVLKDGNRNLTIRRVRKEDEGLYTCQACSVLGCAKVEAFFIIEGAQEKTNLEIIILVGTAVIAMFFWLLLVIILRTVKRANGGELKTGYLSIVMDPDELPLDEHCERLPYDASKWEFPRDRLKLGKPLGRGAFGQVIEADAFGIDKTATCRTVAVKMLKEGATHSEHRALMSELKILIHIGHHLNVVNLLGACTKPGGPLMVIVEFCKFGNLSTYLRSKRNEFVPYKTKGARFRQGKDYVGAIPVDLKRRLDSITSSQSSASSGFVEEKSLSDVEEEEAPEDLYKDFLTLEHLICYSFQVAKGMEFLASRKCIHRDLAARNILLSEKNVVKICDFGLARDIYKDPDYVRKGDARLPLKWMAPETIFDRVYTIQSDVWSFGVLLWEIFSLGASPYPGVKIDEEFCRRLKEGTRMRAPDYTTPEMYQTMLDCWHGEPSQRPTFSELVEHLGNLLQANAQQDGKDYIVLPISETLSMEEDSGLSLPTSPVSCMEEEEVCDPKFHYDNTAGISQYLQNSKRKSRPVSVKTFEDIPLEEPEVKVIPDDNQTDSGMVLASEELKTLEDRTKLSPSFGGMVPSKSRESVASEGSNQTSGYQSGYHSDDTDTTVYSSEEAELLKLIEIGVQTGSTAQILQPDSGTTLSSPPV

[5] = lowest reported IC50 to any gene target, read-out: min IC50
[6] = average of VEGFR2 and FGFR1 relative IC50
[7] = relative IC50: reported IC50 toward FGFR1 divided by next lowest reported IC50 to any gene target
[8] = relative IC50: reported IC50 toward VEGFR2 divided by next lowest reported IC50 to any gene target
[9] = lowest reported IC50 to any gene target, read-out: Min IC50_μM

Row | FGFR1, rIC50 [3, 7] | VEGFR2, rIC50 [4, 8] | Compound | IC50 [1, 5] | avg rIC50 [2, 6] | also measured
1 | 6.7 | 0.4 | NC(=O)c1c(OCc2c(F)cc(Br)cc2F)nsc1NC(=O)NCCCCN1CCCC1 [compound 9811611, 3-((4-Bromo-2,6-difluorobenzyl)oxy)-5-(3-(4-(pyrrolidin-1-yl)butyl)ureido)isothiazole-4-carboxamide] | 1 nM | 3.6 | IC50 ([1]; next lowest IC50 value to any gene target, read-out: Min IC50_μM): 3.08 nM
2 |  | 1.1 | CONC(=O)c1cc(Nc2ncnn3cc(-c4nnc(C)[nH]4)c(C(C)C)c23)c(F)cc1F [compound 11328182, 2,4-Difluoro-5-[5-isopropyl-6-(5-methyl-4H-[1,2,4]triazol-3-yl)-pyrrolo[2,1-f][1,2,4]triazin-4-ylamino]-N-methoxy-benzamide] | 46 nM |  | IC50 [1, 9]: 46 nM; avg rIC50 [2]: 1.0; FGFR1, rIC50 [3]: 1.0
3 |  |  | CCN(CC)CCCNc1cc2nc(NC(=O)NC(C)(C)C)c(-c3cc(OC)cc(OC)c3)cc2cn1 [compound 5330128, 1,6-Naphthyridine 18, reference compound] |  | 4.3 | 
4 | 1.7 | 4.3 | COC(=O)Nc1ccc(-c2c(OC3CCN(C)CC3)nc3c(-c4ccc(OC)c(OC)c4)cnn3c2N)cc1 [compound 156010414, Methyl N-[4-[7-amino-3-(3,4-dimethoxyphenyl)-5-(1-methylpiperidin-4-yl)oxypyrazolo[1,5-a]pyrimidin-6-yl]phenyl]carbamate] | 6 nM | 3.0 | 
5 |  |  | COc1cc(OC)cc(-c2cc3cnc(NCCCN4CCN(C)CC4)nc3nc2NC(=O)NC(C)(C)C)c1 [compound 5330167, Pyrido[2,3-d]pyrimidine 103, reference compound] |  | 2.3 | 
6 |  |  | CCNC(=O)Nc1nc2nc(NCCCCN(CC)CC)ncc2cc1-c1cc(OC)cc(OC)c1 [compound 5330168, Pyrido[2,3-d]pyrimidine 104, reference compound] |  | 3.4 | 
7 | 2.0 | 1.6 | Fc1ccc2c(-c3nc4cc(N5CCC(N6CCCCC6)CC5)ccc4[nH]3)n[nH]c2c1 [compound 135458467, 2-(6-Fluoro-1H-indazol-3-yl)-5-(4-(piperidin-1-yl)piperidin-1-yl)-1H-benzo[d]imidazole] | 16 nM | 1.8 | 
8 |  |  | CCN1CCC(Nc2ccc3c(c2)/C(=C(\c2cccc(F)c2)c2nc(C)c[nH]2)C(=O)N3)CC1 [compound 67163677, XL999; XL-999; XL 999, reference compound] | 2 nM | 2.0 | 
9 |  |  | COc1cc(OC)cc(-c2cc3cnc(NCCCCN4CCN(C)CC4)cc3nc2NC(=O)NC(C)(C)C)c1 [compound 5330130, reference compound] |  | 4.3 | IC50 [1, 9]: 0.4 nM
10 | 5.0 | 6.1 | COC(=O)c1ccc2c(C(=Nc3ccc(CN(C)C(=O)N(C)C)cc3)c3ccccc3)c(O)[nH]c2c1 [compound 135837837, Methyl 3-[N-[4-[[dimethylcarbamoyl(methyl)amino]methyl]phenyl]-C-phenylcarbonimidoyl]-2-hydroxy-1H-indole-6-carboxylate] | 10 nM | 5.6 | 
11 | 8.7 | 1.7 | Chembl4213341 [compound 138393067] | 37 nM | 5.2 | 
12 |  |  | CCNC(=O)Nc1nc2nc(NCCCN3CCN(C)CC3)ncc2cc1-c1cc(OC)cc(OC)c1 [compound 5330166, Pyrido[2,3-d]pyrimidine 102, reference compound] |  | 2.6 | 
13 | 1.9 | 1.1 | Chembl4573547 [compound 155563388] | 150 nM | 1.5 | 
14 |  |  | COc1cc2c(cc1F)C(c1ccccc1Cl)=NC1=C(C)NNC1=N2 [compound 135398512, 5-(2-Chlorophenyl)-7-fluoro-1,2-dihydro-8-methoxy-3-methylpyrazolo(3,4-b)(1,4)benzodiazepine] |  | 1.6 | IC50 ([1]; read-out: Min IC50_μM): 24 nM; IC50 ([1]; read-out: min IC50): 24 nM; FGFR1, rIC50 [3]: 2.8; VEGFR2, rIC50 [4]: 0.4
15 |  |  | COc1cc(OC)cc(-c2cc3cnc(NCCCN4CCN(C)CC4)cc3nc2NC(=O)NC(C)(C)C)c1 [compound 5330127, 1,6-Naphthyridine 17, reference compound] |  | 3.0 | 
16 |  |  | COc1cc(OC)cc(-c2cc3cnc(NCCCCN4CCOCC4)cc3nc2NC(=O)NC(C)(C)C)c1 [compound 5330129, 1,6-Naphthyridine 19, reference compound] |  | 1.5 | 
17 |  |  | COc1cc(OC)cc(-c2cc3cnc(NCCCO)nc3nc2NC(=O)NC(C)(C)C)c1 [compound 5330169, Pyrido[2,3-d]pyrimidine 105, reference compound] |  | 2.3 | 
18 |  |  | COc1cc(OC)cc(-c2cc3cnc(NCCCCCO)cc3nc2NC(=O)NC(C)(C)C)c1 [compound 5330159, 1,6-Naphthyridine 77, reference compound] |  | 1.5 | 
19 |  | 1.6 | COC(=O)c1ccc2c(c1)NC(=O)/C2=C(\Nc1ccc(N(C)C(=O)CN2CCN(C)CC2)cc1)c1ccccc1 [compound 135476717, Nintedanib esylate] | 13 nM |  | avg rIC50 [2]: 3.5
20 |  |  | COc1cc(OC)cc(-c2cc3cnc(NCCCO)cc3nc2NC(=O)NC(C)(C)C)c1 [compound 5330157, 1,6-Naphthyridine 75, reference compound] |  | 1.4 | 
21 | 4.8 | 1.0 | CONC(=O)c1cc(Nc2ncnn3cc(-c4nnc(C(F)(F)S(C)(=O)=O)o4)c(C(C)C)c23)c(F)cc1F [compound 11432911, 5-{6-[5-(Difluoro-methanesulfonyl-methyl)-[1,3,4]oxadiazol-2-yl]-5-isopropyl-pyrrolo[2,1-f][1,2,4]triazin-4-ylamino}-2,4-difluoro-N-methoxy-benzamide] |  | 2.9 | 
22 |  |  | CNC(=O)c1cc(F)cc(N(CCNC(C)C)c2ccc3ncc(-c4cnn(C)c4)nc3c2)c1 [compound 68209105, reference compound] | 2 nM | 2.8 | IC50 ([1]; Table 2, lowest reported IC50 to any gene target, read-out: Min IC50_μM): 3.16 nM
23 | 2.4 |  | CN(C)CCCc1cccc(Nc2ncc3c(n2)-c2ccc(Cl)cc2NC(=S)C3)c1 [compound 56945277, 9-Chloro-2-[3-[3-(dimethylamino)propyl]anilino]-5,7-dihydropyrimido[5,4-d][1]benzazepine-6-thione] |  |  | 
24 | 1.2 | 1.0 | CONC(=O)c1cc(Nc2ncnn3cc(-c4nnc(C(F)F)o4)c(C(C)C)c23)c(F)cc1F [compound 10073832, 5-[6-(5-Difluoromethyl-[1,3,4]oxadiazol-2-yl)-5-isopropyl-pyrrolo[2,1-f][1,2,4]triazin-4-ylamino]-2,4-difluoro-N-methoxy-benzamide] |  | 1.1 | 
25 |  |  | COc1cc(OC)cc(-c2cc3cnc(NCCCCCN4CCN(C)CC4)cc3nc2NC(=O)NC(C)(C)C)c1 [compound 5330135, 1,6-Naphthyridine 25, reference compound] | 3 nM | 1.8 | IC50 [1, 9]: 3 nM
26 |  |  | COc1cc(OC)cc(-c2cc3cnc(NCCCN4CCOCC4)cc3nc2NC(=O)NC(C)(C)C)c1 [compound 5329004, 1,6-Naphthyridine deriv. 20, reference compound] |  | 5.0 | 

Row | Compound | FGFR1, rIC50 [3, 7] | VEGFR2, rIC50 [4, 8] | IC50 [1, 5] | avg rIC50 [2, 6] | also measured
27 | Oc1ccc(C[C@@]2(O)COc3c(ccc(O)c3O)[C@H]2O)cc1O [compound 24949852, Epihematoxylol] |  | 5.8 |  |  | avg rIC50 [2]: 3.7
28 | COC(=O)c1ccc2c(c1)NC(=O)/C2=C(\Nc1ccc(CN2CCCCC2)cc1)c1ccccc1 [compound 135476706, Methyl (3Z)-2-oxo-3-[phenyl-[4-(piperidin-1-ylmethyl)anilino]methylidene]-1H-indole-6-carboxylate] |  | 1.1 |  |  | IC50 ([1]; read-out: min IC50): 32 nM; avg rIC50 [2]: 1.7
29 | CNC(=O)c1cccc2cc(Oc3ccnc4cc(OCC5(N)CC5)c(OC)cc34)ccc12 [compound 25031915, Lucitanib] |  | 3.6 | 10 nM | 3.0 | FGFR1, rIC50 [3]: 2.5
30 | CNC(=O)c1cccc2cc(Oc3ccnc4cc(OCC5(N)CC5)c(OC)cc34)ccc12.Cl [compound 57379018, 6-((7-((1-Aminocyclopropyl)methoxy)-6-methoxyquinolin-4-yl)oxy)-N-methyl-1-naphthamide hydrochloride] |  | 3.6 |  | 3.0 | IC50 ([1]; read-out: min IC50): 10 nM; FGFR1, rIC50 [3]: 2.5
31 | COc1ccc(N2Cc3cnc(Nc4ccc(F)cc4)nc3N([C@@H]3CC[C@@H](O)C3)C2=O)cc1 [compound 11396738, 7-(4-Fluoroanilino)-1-[(1R,3R)-3-hydroxycyclopentyl]-3-(4-methoxyphenyl)-4H-pyrimido[4,5-d]pyrimidin-2-one, reference compound] |  | 0.6 |  |  | IC50 ([1]; read-out: Min IC50_μM): 83 nM; IC50 ([1]; read-out: min IC50): 83 nM; avg rIC50 [2]: 1.2
32 | Oc1cc2c(cc1O)C1c3ccc(O)c(O)c3OCC1(O)C2 (stereo not drawn) [compound 442514, Haematoxylin] |  | 9.5 |  |  | avg rIC50 [2]: 5.5
33 | O=C1c2ccc(O)c(O)c2OC[C@]1(O)Cc1ccc(O)c(O)c1 [compound 44578561, Hematoxylone] | 3.4 | 7.2 |  | 5.3 | 
